Experimental data: patent publication US4464378A, “Method of administering narcotic antagonists and analgesics and novel dosage forms containing same” (University of Kentucky Research Foundation, priority 1981, dated 1984)

Key:
[1] = in vivo; settings: rat, plasma, 0.03 mg; for AUC(0-inf): Area under the blood level curve (AUC ^.infin.0); for AUC(0-inf) / concentration at 1 min / concentration at 0.05 h / concentration at 10 min / concentration at 20 min / concentration at 0.5 h / concentration at 0.75 h / concentration at 1 h / concentration at […] / concentration at 2 h / concentration at 3 h / concentration at 5 min: 30 μg/rat; for concentration at 1 min / concentration at 0.05 h / concentration at 10 min / concentration at 20 min / concentration at 0.5 h / concentration at 0.75 h / concentration at 1 h / concentration at […] / concentration at 2 h / concentration at 3 h / concentration at 5 min: Plasma Level; for concentration at 0.05 h: 3 min; for concentration at 0.5 h: 30 min; for concentration at 0.75 h: 45 min; for concentration at 1 h: 60 min; for concentration at […]: 90 min; for concentration at 2 h: 120 min; for concentration at 3 h: 180 min
[2] = 30 μg/rat
[3] = nasal, individual rats I, II, III
[4] = po, Mean, oral (intraduodenal), mean of 3 rats

C=CCN1CC[C@]23c4c5ccc(O)c4O[C@H]2C(=O)CC[C@@]3(O)[C@H]1C5 [naloxone]
Tmax [1]: ~5 min
bioavailability [1]: 1.5%
half-life [1]: 52.1 min
AUC(0-inf) ([1]; Mean, nasal, mean of 3 rats): 25.3 ng·h/mL
AUC(0-inf) [1, 3]: 31.7 ng·h/mL
concentration at 1 min ([1]; Mean, nasal, mean of 3 rats): 23.3 ng/mL
concentration at 0.05 h ([1]; Mean, nasal, mean of 3 rats): 38.3 ng/mL
concentration at 10 min ([1]; Mean, nasal, mean of 3 rats): 36 ng/mL
concentration at 20 min ([1]; Mean, nasal, mean of 3 rats): 19.5 ng/mL
concentration at 0.5 h ([1]; Mean, nasal, mean of 3 rats): 12 ng/mL
concentration at 0.75 h ([1]; Mean, nasal, mean of 3 rats): 7.96 ng/mL
concentration at 1 h ([1]; Mean, nasal, mean of 3 rats): 6.41 ng/mL
concentration at […] ([1]; Mean, nasal, mean of 3 rats): 3.58 ng/mL
concentration at 2 h ([1]; Mean, nasal, mean of 3 rats): 2.59 ng/mL
concentration at 3 h ([1]; Mean, nasal, mean of 3 rats): 1.42 ng/mL
concentration at 0.05 h [1, 3]: 41.2 ng/mL
concentration at 5 min [1, 3]: 54.5 ng/mL
concentration at 10 min [1, 3]: 45.3 ng/mL
concentration at 20 min [1, 3]: 22.7 ng/mL
concentration at 0.5 h [1, 3]: 13.5 ng/mL
concentration at 0.75 h [1, 3]: 9.36 ng/mL
concentration at 1 h [1, 3]: 8.26 ng/mL
concentration at […] [1, 3]: 4.79 ng/mL
concentration at 2 h [1, 3]: 3.65 ng/mL
concentration at 3 h [1, 3]: 1.95 ng/mL
half-life ([1]; iv): 59.2 min
AUC(0-inf) ([1]; iv, individual rats I, II, III): 21.2 ng·h/mL
AUC(0-inf) ([1]; iv, Mean, mean of 3 rats): 25 ng·h/mL
concentration at 1 min ([1]; iv, individual rats I, II, III): 102 ng/mL
concentration at 0.05 h ([1]; iv, individual rats I, II, III): 52.3 ng/mL
concentration at 5 min ([1]; iv, individual rats I, II, III): 31.4 ng/mL
concentration at 10 min ([1]; iv, individual rats I, II, III): 15.6 ng/mL
concentration at 20 min ([1]; iv, individual rats I, II, III): 10.3 ng/mL
concentration at 0.5 h ([1]; iv, individual rats I, II, III): 7.28 ng/mL
concentration at 0.75 h ([1]; iv, individual rats I, II, III): 5.47 ng/mL
concentration at 1 h ([1]; iv, individual rats I, II, III): 4.87 ng/mL
concentration at […] ([1]; iv, individual rats I, II, III): 3.01 ng/mL
concentration at 2 h ([1]; iv, individual rats I, II, III): 2.15 ng/mL
concentration at 3 h ([1]; iv, individual rats I, II, III): 1.25 ng/mL
concentration at 1 min ([1]; iv, Mean, mean of 3 rats): 111 ng/mL
concentration at 0.05 h ([1]; iv, Mean, mean of 3 rats): 58 ng/mL
concentration at 5 min ([1]; iv, Mean, mean of 3 rats): 37.5 ng/mL
concentration at 10 min ([1]; iv, Mean, mean of 3 rats): 19.6 ng/mL
concentration at 20 min ([1]; iv, Mean, mean of 3 rats): 11.6 ng/mL
concentration at 0.5 h ([1]; iv, Mean, mean of 3 rats): 8.34 ng/mL
concentration at 0.75 h ([1]; iv, Mean, mean of 3 rats): 6.74 ng/mL
concentration at 1 h ([1]; iv, Mean, mean of 3 rats): 5.41 ng/mL
concentration at […] ([1]; iv, Mean, mean of 3 rats): 3.96 ng/mL
concentration at 2 h ([1]; iv, Mean, mean of 3 rats): 2.86 ng/mL
concentration at 3 h ([1]; iv, Mean, mean of 3 rats): 1.47 ng/mL
AUC(0-inf) [1, 4]: 0.367 ng·h/mL
concentration at 5 min [1, 4]: 0.37 ng/mL
concentration at 10 min [1, 4]: 0.34 ng/mL
concentration at 0.75 h [1, 4]: 0.11 ng/mL
concentration at 1 h [1, 4]: 0.09 ng/mL
concentration at 2 h [1, 4]: 0.06 ng/mL
absorption via the nasal route compared with the intravenous route ([2]; nasal vs intravenous): as effective as via the intravenous route
areas under the curve following intravenous and nasal administration, compared ([2]; nasal vs intravenous): not significantly different
bioavailability when administered nasally compared with intravenously ([2]; nasal vs intravenous): equivalent to the bioavailability of the drug when administered intravenously
half-life of elimination after nasal administration compared with intravenous ([2]; nasal vs intravenous): comparable to its half-life following intravenous nasal administration
bioavailability when administered nasally compared with the oral route ([2]; nasal vs oral): vastly superior to its bioavailability by the oral route
absorption from the nasal mucosa ([2]; nasal): very rapidly absorbed from the nasal mucosa
absorption from the nasal mucosa into the systemic circulation; intestinal or first pass metabolism ([2]; nasal): rapidly absorbed from the nasal mucosa into the systemic circulation without extensive intestinal or first pass metabolism
